In PubChem BioAssay (NCI):
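Five concentrations, 48 hours, 96-well plates. TGI denotes the concentration required for complete inhibition of growth.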

Tests used:
Assay in all cases: NCI anticancer screen, dose series, 48 h
[1] = system: LOX IMVI melanoma
[2] = system: HCT-15 colon
[3] = system: HOP-62 NSCLC
[4] = system: SK-MEL-5 melanoma
[5] = system: IGROV1 ovarian
[6] = system: OVCAR-4 ovarian
[7] = system: EKVX NSCLC
[8] = system: MDA-MB-435
[9] = system: 786-0 renal
[10] = system: RXF 393 renal
[11] = system: T-47D breast
[12] = system: MOLT-4 leukemia
[13] = system: A549 NSCLC
[14] = system: CAKI-1 renal
[15] = system: U251 CNS
[16] = system: UACC-62 melanoma
[17] = system: UO-31 renal
[18] = system: SK-MEL-28 melanoma
[19] = system: K-562 leukemia
[20] = system: KM12 colon
[21] = system: NCI-H522 lung
[22] = system: SF-295 CNS
[23] = system: SF-268 CNS
[24] = system: SK-MEL-2 melanoma
[25] = system: SF-539 CNS
[26] = system: M14 melanoma
[27] = system: BT-549 breast
[28] = system: MDA-MB-231 breast
[29] = system: A498 renal
[30] = system: NCI/ADR-RES ovarian
[31] = system: UACC-257 melanoma
[32] = system: OVCAR-5 ovarian
[33] = system: MCF7 breast
[34] = system: CCRF-CEM leukemia
[35] = system: OVCAR-3 ovarian
[36] = system: PC-3 prostate
[37] = system: SW-620 colon
[38] = system: NCI-H23 lung
[39] = system: HS 578T breast
[40] = system: MDA-N
[41] = system: COLO 205 colon
[42] = system: OVCAR-8 ovarian
[43] = system: ACHN renal
[44] = system: SNB-19 CNS
[45] = system: HCT-116 colon
[46] = system: HCC-2998 colon
[47] = system: SNB-75 CNS
[48] = system: HOP-92 NSCLC
[49] = system: SN12C renal
[50] = system: HL-60(TB) leukemia
[51] = system: SR leukemia
[52] = system: HT29 colon
[53] = system: DU-145 prostate
[54] = system: NCI-H226 lung
[55] = system: TK-10 renal
[56] = system: NCI-H460 lung
[57] = system: RPMI-8226 leukemia
[58] = system: MALME-3M melanoma
[59] = system: SK-OV-3 ovarian

CC(C)(C)c1ccc(-n2c3nc(=O)n(-c4ccccc4C(F)(F)F)c(=O)c-3cc3ccccc32)cc1
TGI [1]: 28.6 µM | TGI [2]: 31.3 µM | TGI [3]: 40.3 µM | TGI [4]: 29 µM | TGI [5]: > 100 µM | TGI [6]: > 100 µM | TGI [7]: 64.9 µM | TGI [8]: 35.6 µM | TGI [9]: > 100 µM | TGI [10]: 51.7 µM | TGI [11]: > 100 µM | TGI [12]: 53 µM | TGI [13]: > 100 µM | TGI [14]: 66.8 µM | TGI [15]: 29.6 µM | TGI [16]: 33.8 µM | TGI [17]: > 100 µM | TGI [18]: 23.5 µM | TGI [19]: 61.7 µM | TGI [20]: 37.3 µM | TGI [21]: 45.4 µM | TGI [22]: 60.5 µM | TGI [23]: > 100 µM | TGI [24]: 30.8 µM | TGI [25]: 63.4 µM | TGI [26]: 32.3 µM | TGI [27]: > 100 µM | TGI [28]: 63 µM | TGI [29]: 76.3 µM | TGI [30]: 89.8 µM | TGI [31]: 48 µM | TGI [32]: 55.2 µM | TGI [33]: 72.9 µM | TGI [34]: 41.9 µM | TGI [35]: 31.4 µM | TGI [36]: 51 µM | TGI [37]: 62.8 µM | TGI [38]: > 100 µM | TGI [39]: 68.1 µM | TGI [40]: 74.8 µM | TGI [41]: 43.7 µM | TGI [42]: 84.6 µM | TGI [43]: 60 µM | TGI [44]: > 100 µM | TGI [45]: 25.1 µM | TGI [46]: 28.4 µM | TGI [47]: 71.3 µM | TGI [48]: 51.7 µM | TGI [49]: 59.1 µM | TGI [50]: 36.1 µM | TGI [51]: 43.6 µM | TGI [52]: 37.5 µM | TGI [53]: > 100 µM | TGI [54]: 60.8 µM | TGI [55]: > 100 µM | TGI [56]: 16 µM

Cn1c(=O)n2c(=O)n(C)c(=O)n2c1=O
TGI [1]: > 100 µM | TGI [2]: > 100 µM | TGI [4]: > 100 µM | TGI [5]: > 100 µM | TGI [6]: > 100 µM | TGI [7]: > 100 µM | TGI [8]: > 100 µM | TGI [9]: > 100 µM | TGI [10]: > 100 µM | TGI [11]: > 100 µM | TGI [12]: > 100 µM | TGI [13]: > 100 µM | TGI [14]: > 100 µM | TGI [15]: > 100 µM | TGI [57]: > 100 µM | TGI [16]: > 100 µM | TGI [17]: > 100 µM | TGI [18]: > 100 µM | TGI [19]: > 100 µM | TGI [20]: > 100 µM | TGI [21]: > 100 µM | TGI [58]: > 100 µM | TGI [23]: > 100 µM | TGI [24]: > 100 µM | TGI [25]: > 100 µM | TGI [26]: > 100 µM | TGI [27]: > 100 µM | TGI [28]: > 100 µM | TGI [29]: > 100 µM | TGI [30]: > 100 µM | TGI [31]: > 100 µM | TGI [32]: > 100 µM | TGI [33]: > 100 µM | TGI [34]: > 100 µM | TGI [35]: > 100 µM | TGI [36]: > 100 µM | TGI [37]: > 100 µM | TGI [38]: > 100 µM | TGI [39]: > 100 µM | TGI [40]: > 100 µM | TGI [59]: > 100 µM | TGI [41]: > 100 µM | TGI [42]: > 100 µM | TGI [44]: > 100 µM | TGI [45]: > 100 µM | TGI [46]: > 100 µM | TGI [47]: > 100 µM | TGI [49]: > 100 µM | TGI [50]: > 100 µM | TGI [51]: > 100 µM | TGI [52]: > 100 µM | TGI [53]: > 100 µM | TGI [54]: > 100 µM | TGI [55]: > 100 µM | TGI [56]: > 100 µM

CC(=O)OCCOCn1cc(C=O)c2ccccc21
TGI [1]: > 100 µM | TGI [2]: > 100 µM | TGI [3]: > 100 µM | TGI [4]: > 100 µM | TGI [5]: > 100 µM | TGI [7]: > 100 µM | TGI [8]: > 100 µM | TGI [9]: > 100 µM | TGI [10]: > 100 µM | TGI [11]: > 100 µM | TGI [12]: > 100 µM | TGI [13]: > 100 µM | TGI [14]: > 100 µM | TGI [15]: > 100 µM | TGI [57]: > 100 µM | TGI [16]: > 100 µM | TGI [17]: > 100 µM | TGI [18]: > 100 µM | TGI [19]: > 100 µM | TGI [20]: > 100 µM | TGI [21]: > 100 µM | TGI [22]: > 100 µM | TGI [58]: > 100 µM | TGI [23]: > 100 µM | TGI [24]: > 100 µM | TGI [25]: > 100 µM | TGI [26]: > 100 µM | TGI [27]: > 100 µM | TGI [28]: > 100 µM | TGI [29]: 3.89 µM | TGI [30]: > 100 µM | TGI [31]: > 100 µM | TGI [32]: > 100 µM | TGI [33]: > 100 µM | TGI [34]: > 100 µM | TGI [35]: > 100 µM | TGI [36]: > 100 µM | TGI [37]: > 100 µM | TGI [38]: > 100 µM | TGI [39]: > 100 µM | TGI [40]: > 100 µM | TGI [59]: > 100 µM | TGI [41]: > 100 µM | TGI [42]: > 100 µM | TGI [43]: > 100 µM | TGI [44]: > 100 µM | TGI [45]: > 100 µM | TGI [46]: > 100 µM | TGI [47]: > 100 µM | TGI [48]: > 100 µM | TGI [49]: > 100 µM | TGI [50]: > 100 µM | TGI [51]: > 100 µM | TGI [52]: > 100 µM | TGI [53]: > 100 µM | TGI [55]: > 100 µM | TGI [56]: > 100 µM
